US10208074B2, “Pyrazole compounds and method for making and using the compounds” (Rigel Pharmaceuticals, Inc., priority 2015, dated 2019)
Counter-ions that a name gives are not always drawn. Like-named read-outs stand apart in the source and are kept apart here.

Experiments:
IL-23 (p19/p40) = test: IL23-p19 ELISA, Dendritic, LPS (compound screening using DC cells); type: cell-based, Human; conditions: PBMC-derived DC cells, IFNγ primed, LPS 1 μg/ml, 18 hours, 10 pt, read-out: IL23-p19 ELISA, Dendritic, LPS, 10 pt, EC50
Description: Compound Screening Using DC Cells
Human PBMC cells (400 million) obtained from the vendor were transferred into a T-175 flask containing 15 ml RPMI media (10% FBS) and incubate for 2 hours at 37° C. After 2 hours, the media including floating cells was aspirated out carefully and 12 ml of fresh RPMI media (10% FBS) containing GMCSF (100 ng/ml) and IL4 (20 ng/ml) was added, and the flask was kept in a 37° C. incubator for 7 days.
After 3 days, fresh GMCSF (100 ng/ml) and IL4 (20 ng/ml) were added to the flask and the incubation continued. After 7 days, the fully differentiated cells were harvested by spinning down (1200 rpm/5 min) and aspirating the media. The cells were suspended in fresh RPMI media (10% FBS) containing 50 ng/ml IFNγ (1000 U/ml) and then plated (50K/well in 100 μl) onto a white clear bottom 96 well plate and left in a 37° C. incubator for 24 hours.
After 24 hours incubation, 100 μl of RPMI media was added containing 2× concentrated test compound per well to the above cell-culture media (final concentration becomes 1×) and the plates were pre-incubated for 1 hour at 37° C. before stimulating with LPS.
After 1 hour compound pre-incubation, 10 piper well of 20× concentrated LPS solution in RPMI media was added to give a final concentration of 1 μg/ml. The mixture was shaken and incubated the plates at 37° C. for an additional 18 hours.
155 μl of the supernatant was harvested from each well carefully (without the tip touching the bottom of the well) and to the remaining 50 μl/well of the cell culture plate was added 50 μl of Cell Titer Glo reagent. The mixture was incubated for 1-2 minutes on a shaker and the plate was read for luminescence intensity to determine the compound cytotoxicity. The cell culture supernatant collected above was used to carry out IL23 ELISA (65 μl -Supernatant) and IL10 ELISA (90 μl—Supernatant) as described below.
Human IL-23 (p19/p40) ELISA Protocol (e-Biosciences)
To 10.5 ml PBS add 50 μl of anti-IL23 (p19) was added capture antibody (2.5 μg/ml). The mixture was mixed well and 100 μl of the coating solution was added to each well of the 96 well white plates from Pierce. The wells were covered and incubated overnight at 4° C.
The anti-IL23 (p19)-antibody-coated plates were washed 2× using TBST (use plate washer) and blocked using 200 μl of 0.5% Casein for 1.5-2 hours at room temperature with shaking.
The plates were washed 2× using TBST and the supernatant was transferred (65 μl/well) to the above pre-blocked/IL23(p19)-antibody-coated 96 well plate, and incubated at room temperature for 1.5 hours with shaking.
The plates were washed 4× using TBST (plate washer) and 100 μl/well detection antibody solution prepared from 2 μl of biotin labeled anti-IL-12 (p40/p70) antibody in 11 ml 1% BSA/PBS solution (1-5000 dilution) was added. The plates were incubated for 1 hour with shaking at Room temperature.
Again, the plates were washed 4× with TBST and 100 μl of HRP labeled Streptavidin (R&D Systems) solution (10 μl/10 ml 1% BSA solution) was added, and the plates were incubated at room temperature for another 45 minutes with shaking.
After 45 minutes, the plates were washed with TBST 4× and 100 ul/well Super Signal ELISA Pico Chemiluminescent Substrate from Pierce (3.5 ml A+3.5 ml B+3.5 ml MQ water) was added. The plates were shaken for 1-2 minutes then read on a plate reader.

IL-23p19 = test: LPS induced IL23p19 in THP-1 cells (with IFNγ primed) assay; type: cell-based, Human; conditions: THP-1 cells, IFNγ primed, LPS 1 ug/mL, 18 hours, 10 pt, read-out: IL23-p19 ELISA, THP1-IFNy, LPS, 10 pt EC50
Description: LPS Induced IL23p19 in THP-1 Cells (with IFNγ Primed) Assay
THP-1 Cells (ATCC, Cat#TIB-202), Dimethyl Sulfoxide (DMSO) (Sigma-Aldrich, Cat#D2650), RPMI 1640 (Cellgro, Cat#10-040-CM), Fetal Bovine Serum (Sigma, Cat#F4135), Albumin From Bovine Serum (BSA) (Sigma-Aldrich, Cat#A7906), LPS (Serotype K-235, Sigma, Product Number L 2143), IFNγ (Peprotech, Cat#300-02) Capture antibody: Human IL-23p19 ELISA (e-Bioscience, Cat. #14-7238-85), Detection antibody: Primary Mouse Biotinylated anti-human IL-12(p40/p70) (e-Bioscience, Cat. #13-7129-85), Secondary HRP-conjugated Streptavidin (R&D Systems, Cat#DY998), 1×PBST Washing Buffer (PBS-Tween tablet) (VWR International, Cat#80058-558), ELISA Blocking Buffer (PBS with 1% BSA), ELISA Dilution Buffer (PBS with 1% BSA), 384 Well Flat-Bottom, MaxiSorp Black Immuno Plates (Thermo Scientific, Cat#12-565-346), 384 Well Flat-Bottom, White Tissue Culture Plates (Thermo Scientific, Cat#12-565-343), Super Signal ELISA Pico Chemiluminescent Substrate (Thermo Scientific, Cat#37070), Cell Titer Glo reagent (Promega, Cat#G7573), Positive control, IKK2VI inhibitor (Calbiochem, Cat#401483), AquaMax 4000 plate washer (Molecular Devices), Luminometer, Wallac Victor2 1420 Multilabel Counter.
On day 1, 50K/well THP-1 cells were seeded and primed with IFNγ (50 ng/mL) in 384-well plates for about 18 hours in RPMI media with 10% FBS. On day 2, the compound was serially diluted in DMSO from 5 mM in 3-fold dilutions, and then diluted 1:125 in RPMI media with 10% FBS. 50 μL/well 2× compound was added to 50 μL/well THP-1 cells (with IFNγ primed) in duplicate in 384 well tissue culture plates. The cells were pre-incubated with compound for 1 hour at 37° C., 5% CO2 before addition of 10 μL/well 11×LPS to give a final concentration of 1 ug/mL LPS. Day 3, after stimulation for 18 hours at 37° C., 5% CO2, the assay plate was centrifuged and 70 μL/well supernatant was harvested. IL-23p19 protein in 70 μL/well of supernatant was measured by sandwich ELISA, and 25 μl/well Cell Titer Glo reagent was added to the remaining cells to measure compound toxicity.
Maxisorp immuno ELISA plates were pre-coated with 25 μL/well of anti-IL-23p19 capture antibody (2.5 ug/mL) in PBS overnight at room temperature. After washing with 1× PBST, the plates were blocked using 100 μL/well of 1% BSA in PBS for 2 hours at room temperature. The plates were washed three times with 1×PBST and 70 μL/well supernatant were added. The plates were incubated at room temperature for 2 hours with shaking and washed three times with 1×PBST. 25 μL/well of biotin labeled anti-IL-12(p40/p70) detection antibody (100 ng/mL) in PBS with 1% BSA was added and the plates were incubated at room temperature for 2 hours with shaking. After washing three times with 1×PBST, 25 μL/well of streptavidin-HRP (1:200) in PBS with 1% BSA was added and the plates were incubated at room temperature for 20 minutes with shaking. The plates were washed three times with 1× PBST and 25 μL/well of Super Signal ELISA Pico Chemiluminescent Substrate were added. The plates were read with a luminometer, and the chemiluminescence values were entered into Athena (Rigel) for curve fitting, EC50 calculation, and database storage.

SMILES	EC50 (IL-23 (p19/p40); Homo sapiens, 18 h) [µM]	EC50 (IL-23p19; Homo sapiens, THP-1, 18 h) [µM]	EC50 (IL-23p19) [µM]	EC50 (IL-23 (p19/p40); formate salt) [µM]	EC50 (IL-23 (p19/p40)) [µM]
CCO[C@H]1C[C@@H](n2cc(NC(=O)c3csc(-c4cnn(COP(=O)(O)O)c4)n3)c(-c3ccccn3)n2)C1 [II-85, (4-(4-((1-((1,3-cis)-3-ethoxycyclobutyl)-3-(pyridin-2-yl)-1H-pyrazol-4-yl)carbamoyl)thiazol-2-yl)-1H-pyrazol-1-yl)methyl phosphate triethylamine salt]			0.0499		0.287
O=C(Nc1cn(C2CCOC2)nc1-c1nccs1)c1ccc(-c2cn[nH]c2)o1 (centres unmarked) [Compound I-120, 5-(1H-pyrazol-4-yl)-N-(1-(tetrahydrofuran-3-yl)-3-(thiazol-2-yl)-1H-pyrazol-4-yl)furan-2-carboxamide formate]	0.0948	0.0528			
O=C(Nc1cn(C2CNC2)nc1-c1ccccn1)c1ccc(-c2cn[nH]c2)o1 [Compound I-78, N-{1-(Azetidin-3-yl)-3-(pyridine-2-yl)-1H-pyrazol-4-yl}-5-(1H-pyrazol-4-yl)furan-2-carboxamide, TFA salt]	0.105	0.0784			
Cn1cc(NC(=O)c2ccc(-c3cn[nH]c3)o2)c(-c2ccccn2)n1 [Compound I-67, N-{1-Methyl-3-(pyridine-2-yl)-1H-pyrazol-4-yl}-5-(1H-pyrazol-4-yl)furan-2-carboxamide, formate salt]		0.0723		0.0041	
CCO[C@H]1C[C@@H](n2cc(NC(=O)c3ccc(-c4cn[nH]c4)o3)c(-c3nc(F)ccc3F)n2)C1 [Compound I-156, N-(3-(3,6-difluoropyridin-2-yl)-1-((1s,3s)-3-ethoxycyclobutyl)-1H-pyrazol-4-yl)-5-(1H-pyrazol-4-yl)furan-2-carboxamide]	0.105	0.0595			
COC1CC(n2cc(NC(=O)c3ccc(-c4cn[nH]c4)o3)c(-c3ccccn3)n2)C1 (stereo not drawn) [Compound I-71, N-{1-(3-Methoxycyclobutyl)-3-(pyridine-2-yl)-1H-pyrazol-4-yl}-5-(1H-pyrazol-4-yl)furan-2-carboxamide, formate salt, Cis isomer]			0.0265		0.0225

Second part, led by results:

EC50 (IL-23 (p19/p40); Homo sapiens, 18 h) [µM]	EC50 (IL-23p19; Homo sapiens, THP-1, 18 h) [µM]	EC50 (IL-23p19) [µM]	EC50 (IL-23 (p19/p40); formate salt) [µM]	SMILES	EC50 (IL-23 (p19/p40)) [µM]
0.263	0.0802			CCO[C@H]1CC[C@H](n2cc(NC(=O)c3csc(-c4cn[nH]c4)n3)c(-c3ncc(F)cc3F)n2)CC1 [II-180, N-(3-(3,5-difluoropyridin-2-yl)-1-((1r,4r)-4-ethoxycyclohexyl)-1H-pyrazol-4-yl)-2-(1H-pyrazol-4-yl)thiazole-4-carboxamide]	
0.0242	0.013			O=C(Nc1cn([C@H]2C[C@@H](O)C2)nc1-c1cccc(F)n1)c1csc(-c2cn[nH]c2)n1 [II-172, N-(3-(6-fluoropyridin-2-yl)-1-((cis)-3-hydroxycyclobutyl)-1H-pyrazol-4-yl)-2-(1H-pyrazol-4-yl)thiazole-4-carboxamide]	
0.0568	0.0343			O=C(Nc1cn([C@H]2CC[C@@H](O)C2)nc1-c1ccccn1)c1csc(-c2cn[nH]c2)n1 (relative stereo) [II-149, N-(1-((cis)-3-hydroxycyclopentyl)-3-(pyridin-2-yl)-1H-pyrazol-4-yl)-2-(1H-pyrazol-4-yl)thiazole-4-carboxamide]	
0.0188	0.0413			Cc1n[nH]cc1-c1nc(C(=O)Nc2cn(C3COC3)nc2-c2ccccn2)cs1 [II-41, 2-(3-methyl-1H-pyrazol-4-yl)-N-(1-(oxetan-3-yl)-3-(pyridin-2-yl)-1H-pyrazol-4-yl)thiazole-4-carboxamide, formic acid salt]	
5.45	20.8			Cn1cc(NC(=O)c2csc(-c3cn[nH]c3)n2)c(C(F)(F)F)n1 [II-63, N-(1-methyl-3-(trifluoromethyl)-1H-pyrazol-4-yl)-2-(1H-pyrazol-4-yl)thiazole-4-carboxamide trifluoroacetate salt]	
1.13	0.589			CCO[C@H]1C[C@@H](n2cc(NC(=O)c3csc(-c4cn[nH]c4)n3)c(-c3ncccc3C(F)(F)F)n2)C1 [II-89, N-(1-((1,3-cis)-3-ethoxycyclobutyl)-3-(3-(trifluoromethyl)pyridin-2-yl)-1H-pyrazol-4-yl)-2-(1H-pyrazol-4-yl)thiazole-4-carboxamide]	
0.106		0.0566		CCN(CC)CCn1cc(NC(=O)c2csc(-c3cn[nH]c3)n2)c(-c2ccccn2)n1 [II-117, N-(1-(2-(diethylamino)ethyl)-3-(pyridin-2-yl)-1H-pyrazol-4-yl)-2-(1H-pyrazol-4-yl)thiazole-4-carboxamide]	
